This note sets out measurements from the supplement of paper PMC11616607.

Molecules are shown by their SMILES.

For one assay, the system named is HOSE1C. As to the kind of experiment: drug sensitivity score (DSS) from 5-point dose-response viability curve (DSS (area-under-curve based score)); higher = more sensitive (stronger growth inhibition or killing); extreme values may be limits of the assay. The following applies: exposure time: 72 h; concentration range: 5 concentrations over 10,000-fold range. Summed up: (§1)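 Drug sensitivity scores were calculated in Breeze software for each cell line and drug pair; higher scores indicate more sensitivity. A score of zero indicates no response. The underlying assay used 384-well plates: drugs were placed by an Echo 550 acoustic dispenser at five concentrations spanning a 10,000-fold range, 1,500 ovarian cancer or normal ovarian cells were added per well, and cells were kept 3 days at 37°C, 5% CO2. Viability was then measured with CellTiter-Glo luminescence on a PHERAstar FS.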
`Cc1cnc(-c2ccccc2C(C)C)nc1NCc1ccc(-n2ccnn2)cc1` [ML323] had a drug sensitivity score of 0. Still for that read-out and setting: the value for `Cc1ccc(C(=O)Nc2cccc(C(F)(F)F)c2)cc1Nc1nc(-c2cccnc2)nc2c1cnn2C` [NVP-BHG712] was 2.2.

In turn, `COc1cc2c(cc1OCCCN1CCCC1)N=C(N)C21CCC1` [A-366] yielded a drug sensitivity score of 0.8. Compound `CS(=O)(=O)c1ccc(C(=O)Nc2ccc(Cl)c(-c3ccccn3)c2)c(Cl)c1` [Vismodegib] displayed a drug sensitivity score of 3.8. On the same count and under the same terms, then `COc1cc2c(Oc3ccc4[nH]c(C)cc4c3F)ncnc2cc1OCCCN1CCCC1` [Cediranib], with 0; and `CCNC(=O)c1noc(-c2cc(C(C)C)c(O)cc2O)c1-c1ccc(CN2CCOCC2)cc1` [Luminespib], with 23.1; and `Cc1cnc(Nc2ccc(OCCN3CCCC3)cc2)nc1Nc1cccc(S(=O)(=O)NC(C)(C)C)c1` [Fedratinib], with 7.1. Take `CNC(=O)c1ccc(C)c(-n2c(C)cc(OCc3ccc(F)cc3F)c(Br)c2=O)c1`: the drug sensitivity score is 0. On the same count and under the same terms, then `Cc1nc(Nc2n[nH]c3c2CN(C(=O)N[C@H](CN(C)C)c2ccccc2)C3(C)C)c2sccc2n1`, with 20.6. Same read-out and setting: the value for `CCN(CC)Cc1ccc2cc(COC(=O)Nc3ccc(C(=O)NO)cc3)ccc2c1` [Givinostat] was 12.3.

As to `CC(C)(C)Cn1c(N)nc2ccc(-c3[nH]c(C(C)(C)C)nc3-c3ccc(F)cc3)nc21` [Ralimetinib], the drug sensitivity score is 1.1. For `COc1cc2nccc(Oc3ccc(NC(=O)NC4CC4)c(Cl)c3)c2cc1C(N)=O` [Lenvatinib], the drug sensitivity score was found to be 0.4. The same measure, in the same setting: the value for `S=c1[nH]cnc2nc[nH]c12` [Mercaptopurine] was 0. Same read-out and setting: the value for `CNc1nc(Nc2cn(C(C)(C)C#N)nc2C)ncc1C(F)(F)F` [GNE-0877] was 0; that for `COc1cc2nccc(Oc3ccc(NC(=O)C4(C(=O)Nc5ccc(F)cc5)CC4)cc3)c2cc1OC` [Cabozantinib] was 0. The compound `CN1CC[C@H](c2c(O)cc(O)c3c(=O)cc(-c4ccccc4Cl)oc23)[C@H](O)C1` [Alvocidib] registered a drug sensitivity score of 18.9. Still for that read-out and setting: then `O=C1NC(=O)[C@@H](c2cn3c4c(cccc24)CCC3)[C@@H]1c1c[nH]c2ccccc12` [Tivantinib], with 5.2. The same measure, in the same setting: the value for `C[C@@H](Nc1cc(F)cc(F)c1)c1cc(C(=O)N(C)C)cc2c(=O)cc(N3CCOCC3)oc12` [AZD-8186] was 0.1. Same read-out and setting: then `O=C1Cc2cc(C(=O)NC3C[C@H]4CC[C@@H](C3)N4S(=O)(=O)CC3CCN(CCCC(F)(F)F)CC3)c(Cl)cc2N1` (stereo partly specified), with 0; and `C/C(=C\c1csc(C)n1)[C@@H]1C[C@@H]2O[C@]2(C)CCC[C@H](C)[C@H](O)[C@@H](C)C(=O)C(C)(C)[C@@H](O)CC(=O)N1` [Ixabepilone], with 1.6.

Take `COc1ccc(COc2cc3oc(=O)c4cc(C(C)O)ccc4c3cc2OC)cc1` (stereo unspecified) [Palomid-529]: the drug sensitivity score was 0. Take `Nc1ncn([C@@H]2O[C@H](CO)[C@@H](O)[C@H]2O)c(=O)n1` [Azacitidine]: the drug sensitivity score was found to be 0. On the same count and under the same terms, then `Cc1nn(C)c(COc2ccc(N3CCN(S(=O)(=O)N(C)C)CC3)cc2)c1-c1cccc2c(CCCOc3cccc4ccccc34)c(C(=O)O)n(CCN3CCOCC3)c12`, with 13.7; and `C=C1C[C@@H]2[C@H](CC[C@]3(C)C(=O)CC[C@@H]23)[C@@]2(C)C=CC(=O)C=C12` [Exemestane], with 0.

Compound `C[C@@H]1C=C2C(=O)O[C@@H]3CC[C@H](C1)[C@]23O` [Galiellalactone] yielded a drug sensitivity score of 8.1. The same measure, in the same setting: the value for `Cn1c(Nc2ccc(C(F)(F)F)cc2)nc2cc(Oc3ccnc(-c4ncc(C(F)(F)F)[nH]4)c3)ccc21` [NVP-RAF265] was 6.9; that for `Cn1ncc(Cl)c1-c1cc(C(=O)N[C@H](CN)Cc2ccc(F)c(F)c2)oc1Cl` [Uprosertib] was 3.2; that for `CC1=C2C[C@H]3[C@@H](CC[C@@H]4C[C@H](NS(C)(=O)=O)CC[C@@]43C)[C@@H]2CC[C@@]2(C1)O[C@@H]1C[C@H](C)CN[C@H]1[C@H]2C` [Saridegib] was 2.3. Still for that read-out and setting: the value for `COc1cc2c(Oc3ccc(NC(=O)C4(C(=O)Nc5ccc(F)cc5)CC4)cc3F)ccnc2cc1OCCCN1CCOCC1` [Foretinib] was 1.9. With `COCCOc1cnc2ccn([C@H](C)c3nnc4c(F)cc(-c5cnn(C)c5)cn34)c(=O)c2c1` [AMG-337], the drug sensitivity score is 0. The same measure, in the same setting: then `Nc1ccccc1NC(=O)c1ccc(CNC(=O)OCc2cccnc2)cc1` [Entinostat], with 17.3.

The test system of a further assay is Kuramochi. The assay is described as above. The following applies: exposure time: 72 h; concentration range: 5 concentrations over 10,000-fold range. Summed up: as §1
Turning to `Cc1cnc(-c2ccccc2C(C)C)nc1NCc1ccc(-n2ccnn2)cc1` [ML323], the drug sensitivity score amounted to 0. On the same count and under the same terms, then `Cc1ccc(C(=O)Nc2cccc(C(F)(F)F)c2)cc1Nc1nc(-c2cccnc2)nc2c1cnn2C` [NVP-BHG712], with 2.5; and `COc1cc2c(cc1OCCCN1CCCC1)N=C(N)C21CCC1` [A-366], with 1.2. Same read-out and setting: then `CS(=O)(=O)c1ccc(C(=O)Nc2ccc(Cl)c(-c3ccccn3)c2)c(Cl)c1` [Vismodegib], with 0.1; and `COc1cc2c(Oc3ccc4[nH]c(C)cc4c3F)ncnc2cc1OCCCN1CCCC1` [Cediranib], with 0. As for `CCNC(=O)c1noc(-c2cc(C(C)C)c(O)cc2O)c1-c1ccc(CN2CCOCC2)cc1` [Luminespib], the drug sensitivity score came out at 14.4. Still for that read-out and setting: then `Cc1cnc(Nc2ccc(OCCN3CCCC3)cc2)nc1Nc1cccc(S(=O)(=O)NC(C)(C)C)c1` [Fedratinib], with 7.7. The same measure, in the same setting: then `CNC(=O)c1ccc(C)c(-n2c(C)cc(OCc3ccc(F)cc3F)c(Br)c2=O)c1`, with 0.7. The compound `Cc1nc(Nc2n[nH]c3c2CN(C(=O)N[C@H](CN(C)C)c2ccccc2)C3(C)C)c2sccc2n1` returned a drug sensitivity score of 12.2. Same read-out and setting: the value for `CCN(CC)Cc1ccc2cc(COC(=O)Nc3ccc(C(=O)NO)cc3)ccc2c1` [Givinostat] was 6.2; that for `CC(C)(C)Cn1c(N)nc2ccc(-c3[nH]c(C(C)(C)C)nc3-c3ccc(F)cc3)nc21` [Ralimetinib] was 6.6; that for `COc1cc2nccc(Oc3ccc(NC(=O)NC4CC4)c(Cl)c3)c2cc1C(N)=O` [Lenvatinib] was 0.

`S=c1[nH]cnc2nc[nH]c12` [Mercaptopurine] displayed a drug sensitivity score of 7.7. On the same count and under the same terms, then `CNc1nc(Nc2cn(C(C)(C)C#N)nc2C)ncc1C(F)(F)F` [GNE-0877], with 0; and `COc1cc2nccc(Oc3ccc(NC(=O)C4(C(=O)Nc5ccc(F)cc5)CC4)cc3)c2cc1OC` [Cabozantinib], with 3.1.
